According to the supplement of paper PMC10307832:

Experiments:
Assay in all cases: relative viability (nuclei count vs DMSO), 5 days (fraction); higher = more cells survive
NCI-H1666 = test system: NCI-H1666
Summary of the method: (§1)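 The day after seeding in 1536-well plates, lung cancer cell lines were treated by pin tool with a single drug, or with a fixed anchor-drug dose together with five library-drug doses (not always all listed) in √10 steps. After 5 days, a combined fix-and-stain solution (final 0.05% Triton X-100, 1% formaldehyde, 1 ug/ml Hoechst) was added. Nuclei counted on 4× images gave relative viability as treated counts over vehicle counts, reported as the median of duplicate plates.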

NCI-H358 = test system: NCI-H358
Summary of the method: as §1

NCI-H661 = test system: NCI-H661
Summary of the method: as §1

SK-MES-1 = test system: SK-MES-1
Summary of the method: as §1

PC-3 [JPC-3] = test system: PC-3 [JPC-3]
Summary of the method: as §1

NCI-H596 = test system: NCI-H596
Summary of the method: as §1

HCC-15 = test system: HCC-15
Summary of the method: as §1

NCI-H1651 = test system: NCI-H1651
Summary of the method: as §1

UMC-11 = test system: UMC-11
Summary of the method: as §1

LXF-289 = test system: LXF-289
Summary of the method: as §1

BEN = test system: BEN
Summary of the method: as §1

NCI-H2087 = test system: NCI-H2087
Summary of the method: as §1

HCC-78 = test system: HCC-78
Summary of the method: as §1

NCI-H322M = test system: NCI-H322M
Summary of the method: as §1

NCI-H650 = test system: NCI-H650
Summary of the method: as §1

NCI-H1944 = test system: NCI-H1944
Summary of the method: as §1

LCLC-97TM1 = test system: LCLC-97TM1
Summary of the method: as §1

LU99A = test system: LU99A
Summary of the method: as §1

NCI-H838 = test system: NCI-H838
Summary of the method: as §1

LC-2-ad = test system: LC-2-ad
Summary of the method: as §1

LK-2 = test system: LK-2
Summary of the method: as §1

Compound: Oc1nc(-c2ccc(C(F)(F)F)cc2)nc2c1CSCC2 [XAV939] + CS(=O)(=O)CCNCc1ccc(-c2ccc3ncnc(Nc4ccc(OCc5cccc(F)c5)c(Cl)c4)c3c2)o1 [Lapatinib] (partner 2 µM)
- relative viability (NCI-H1666; first compound 0.08 µM): 0.571
- relative viability (NCI-H1666; first compound 0.253 µM): 0.415
- relative viability (NCI-H1666; first compound 0.8 µM): 0.442
- relative viability (NCI-H1666; first compound 2.53 µM): 0.353
- relative viability (NCI-H358; first compound 0.08 µM): 0.502
- relative viability (NCI-H358; first compound 0.253 µM): 0.469
- relative viability (NCI-H358; first compound 0.8 µM): 0.494
- relative viability (NCI-H358; first compound 2.53 µM): 0.434
- relative viability (NCI-H661; first compound 0.08 µM): 0.553
- relative viability (NCI-H661; first compound 0.253 µM): 0.482
- relative viability (NCI-H661; first compound 0.8 µM): 0.595
- relative viability (NCI-H661; first compound 2.53 µM): 0.372
- relative viability (SK-MES-1; first compound 0.08 µM): 0.499
- relative viability (SK-MES-1; first compound 0.253 µM): 0.389
- relative viability (SK-MES-1; first compound 0.8 µM): 0.424
- relative viability (SK-MES-1; first compound 2.53 µM): 0.406
- relative viability (PC-3 [JPC-3]; first compound 0.08 µM): 0.454
- relative viability (PC-3 [JPC-3]; first compound 0.253 µM): 0.417
- relative viability (PC-3 [JPC-3]; first compound 0.8 µM): 0.435
- relative viability (PC-3 [JPC-3]; first compound 2.53 µM): 0.443
- relative viability (NCI-H596; first compound 0.08 µM): 1.21
- relative viability (NCI-H596; first compound 0.253 µM): 1.12
- relative viability (NCI-H596; first compound 0.8 µM): 1.1
- relative viability (NCI-H596; first compound 2.53 µM): 0.656
- relative viability (HCC-15; first compound 0.08 µM): 1.02
- relative viability (HCC-15; first compound 0.253 µM): 0.774
- relative viability (HCC-15; first compound 0.8 µM): 0.829
- relative viability (HCC-15; first compound 2.53 µM): 0.806
- relative viability (NCI-H1651; first compound 0.08 µM): 0.822
- relative viability (NCI-H1651; first compound 0.253 µM): 0.758
- relative viability (NCI-H1651; first compound 0.8 µM): 0.904
- relative viability (NCI-H1651; first compound 2.53 µM): 0.857
- relative viability (UMC-11; first compound 0.08 µM): 1.15
- relative viability (UMC-11; first compound 0.253 µM): 0.742
- relative viability (UMC-11; first compound 0.8 µM): 0.97
- relative viability (UMC-11; first compound 2.53 µM): 0.921
- relative viability (LXF-289; first compound 0.08 µM): 0.898
- relative viability (LXF-289; first compound 0.253 µM): 0.826
- relative viability (LXF-289; first compound 0.8 µM): 0.897
- relative viability (LXF-289; first compound 2.53 µM): 0.919
- relative viability (BEN; first compound 0.08 µM): 0.656
- relative viability (BEN; first compound 0.253 µM): 0.547
- relative viability (BEN; first compound 0.8 µM): 0.584
- relative viability (BEN; first compound 2.53 µM): 0.435
- relative viability (NCI-H2087; first compound 0.08 µM): 1.12
- relative viability (NCI-H2087; first compound 0.253 µM): 1.06
- relative viability (NCI-H2087; first compound 0.8 µM): 1.08
- relative viability (NCI-H2087; first compound 2.53 µM): 0.89
- relative viability (HCC-78; first compound 0.08 µM): 0.868
- relative viability (HCC-78; first compound 0.253 µM): 0.508
- relative viability (HCC-78; first compound 0.8 µM): 0.326
- relative viability (HCC-78; first compound 2.53 µM): 0.457
- relative viability (NCI-H322M; first compound 0.08 µM): 0.602
- relative viability (NCI-H322M; first compound 0.253 µM): 0.57
- relative viability (NCI-H322M; first compound 0.8 µM): 0.599
- relative viability (NCI-H322M; first compound 2.53 µM): 0.426
- relative viability (NCI-H650; first compound 0.08 µM): 0.868
- relative viability (NCI-H650; first compound 0.253 µM): 0.957
- relative viability (NCI-H650; first compound 0.8 µM): 1
- relative viability (NCI-H650; first compound 2.53 µM): 0.893
- relative viability (NCI-H1944; first compound 0.08 µM): 1.16
- relative viability (NCI-H1944; first compound 0.253 µM): 0.865
- relative viability (NCI-H1944; first compound 0.8 µM): 0.834
- relative viability (NCI-H1944; first compound 2.53 µM): 0.679
- relative viability (LCLC-97TM1; first compound 0.08 µM): 1.11
- relative viability (LCLC-97TM1; first compound 0.253 µM): 0.959
- relative viability (LCLC-97TM1; first compound 0.8 µM): 0.668
- relative viability (LCLC-97TM1; first compound 2.53 µM): 0.81
- relative viability (LU99A; first compound 0.08 µM): 0.964
- relative viability (LU99A; first compound 0.253 µM): 0.851
- relative viability (LU99A; first compound 0.8 µM): 0.995
- relative viability (LU99A; first compound 2.53 µM): 0.939
- relative viability (NCI-H838; first compound 0.08 µM): 1.13
- relative viability (NCI-H838; first compound 0.253 µM): 0.918
- relative viability (NCI-H838; first compound 0.8 µM): 0.949
- relative viability (NCI-H838; first compound 2.53 µM): 0.767
- relative viability (LC-2-ad; first compound 0.08 µM): 0.886
- relative viability (LC-2-ad; first compound 0.253 µM): 0.749
- relative viability (LC-2-ad; first compound 0.8 µM): 0.954
- relative viability (LC-2-ad; first compound 2.53 µM): 0.862
- relative viability (LK-2; first compound 0.08 µM): 0.979
- relative viability (LK-2; first compound 0.253 µM): 0.981
- relative viability (LK-2; first compound 0.8 µM): 1.04
- relative viability (LK-2; first compound 2.53 µM): 0.928
